Experimental data from US20080200345A1, “HIGH THROUGHPUT METHOD TO IDENTIFY LIGANDS FOR CELL ATTACHMENT” (priority 2003, published 2008).

System: MC3T3-E1 cells
Test: ECM screen: adhesion of MC3T3-E1 osteoblast cells to immobilized adhesion ligands (nuclei count)
Type: cell-based
Details: best factors approach
Description: A statistical design was developed with special consideration of the surface chemistry requirements. In particular, in this experiment the scenario shown in FIG. 6 was used, wherein the overall adhesion ligand density was kept constant from well to well and only the adhesion ligand composition was allowed to change. In other words, the concentration of a single adhesion ligand could be different from well to well, but each well has the same amount of adhesion ligand immobilized overall. This scenario is further described above. An example of such design is shown in the spreadsheet in FIG. 7. The top row in FIG. 7 lists the 10 cell adhesion ligands used in this particular screen. The first column is a list of the experimental points that translate into a well in the 96-well plate, e.g., 52 wells in this case. The numbers in the spreadsheet are the actual volumes (in µL) of factor that is added to a particular well. In this particular design, factors get added to the wells at three volumes, e.g., 5 µL, 25 µL, or 50. mu.L. The total well volume in this case is 50 µL. Thus, for wells where one factor is added at 50 µL, the final well composition will comprise a single adhesion ligand covalently immobilized on the well surface. Accordingly, if 25 µL of a factor is added to a well, a second factor is added at 25 µL also, and the final well composition will comprise a mixture of two different cell adhesion ligands covalently immobilized on the well surface. When 5 µL of a factor are added, nine other factors are added at 5 µL each, as well, thus resulting in wells that comprise a mixture of all 10 cell adhesion ligands on the well surface. These experimental points containing all 10 adhesion ligands are called “mid points” and are an integral part of the statistical design in this example.
With reference now to FIG. 8, a 96-well plate layout is shown, which was translated from the particular statistical design shown in FIG. 7. In particular, the 96-well plate includes the well compositions indicated in FIG. 7, e.g., cell adhesion ligand combinations immobilized at the bottom of each well. In particular, the experimental runs in FIG. 7 correspond to rows/columns in FIG. 8, as follows: runs 1-10 in the design in FIG. 7 represent row B, columns 2-11, respectively on the plate layout in FIG. 8; runs 11-20 represent row C, columns 2-11; runs 21-30 represent row D, columns 2-11; runs 31-40 represent row E, columns 2-11; runs 41-50 represent row F, columns 2-11 and runs 51 and 52 represent row G, columns 2 and 3, respectively. As shown by the statistical design in FIG. 7 and the corresponding 96-well plate layout in FIG. 8, it is an embodiment of the present invention that, in addition to mixtures of agents, single agents can be placed in the receptacles. […]

| Substance | Effect on cell count, mixture-model analysis (Ln(cell count-10% serum+1) vs. deviation from reference blend, FIG. 12) | Effect on cell count, mixture-model analysis (Ln(cell count-no serum+1) vs. deviation from reference blend, FIG. 11) |
| --- | --- | --- |
| laminin | positive effect | increase the cell count |
| poly-L-lysine | diminishes | marginal effect |
